The values that follow are results of earlier work, collected in US12648920B2, “Methods of administering glutathione precursors” (Neuronasal, Inc., priority 2020, dated 2026).

For this data set the following is noted: oral.

Consider `CC(=O)N[C@@H](CS)C(=O)O` [NAC, N-acetylcysteine], for which the orally bioavailable is on record as under 10%.
